82 molecules from PubChem BioAssay AID514 (SGCOxCompounds, 2006) can be followed below.

Molecules are shown by their SMILES.

Chain of STE20-like serine/threonine-protein kinase (Homo sapiens) (Q9H2G2 whole entry, looked up): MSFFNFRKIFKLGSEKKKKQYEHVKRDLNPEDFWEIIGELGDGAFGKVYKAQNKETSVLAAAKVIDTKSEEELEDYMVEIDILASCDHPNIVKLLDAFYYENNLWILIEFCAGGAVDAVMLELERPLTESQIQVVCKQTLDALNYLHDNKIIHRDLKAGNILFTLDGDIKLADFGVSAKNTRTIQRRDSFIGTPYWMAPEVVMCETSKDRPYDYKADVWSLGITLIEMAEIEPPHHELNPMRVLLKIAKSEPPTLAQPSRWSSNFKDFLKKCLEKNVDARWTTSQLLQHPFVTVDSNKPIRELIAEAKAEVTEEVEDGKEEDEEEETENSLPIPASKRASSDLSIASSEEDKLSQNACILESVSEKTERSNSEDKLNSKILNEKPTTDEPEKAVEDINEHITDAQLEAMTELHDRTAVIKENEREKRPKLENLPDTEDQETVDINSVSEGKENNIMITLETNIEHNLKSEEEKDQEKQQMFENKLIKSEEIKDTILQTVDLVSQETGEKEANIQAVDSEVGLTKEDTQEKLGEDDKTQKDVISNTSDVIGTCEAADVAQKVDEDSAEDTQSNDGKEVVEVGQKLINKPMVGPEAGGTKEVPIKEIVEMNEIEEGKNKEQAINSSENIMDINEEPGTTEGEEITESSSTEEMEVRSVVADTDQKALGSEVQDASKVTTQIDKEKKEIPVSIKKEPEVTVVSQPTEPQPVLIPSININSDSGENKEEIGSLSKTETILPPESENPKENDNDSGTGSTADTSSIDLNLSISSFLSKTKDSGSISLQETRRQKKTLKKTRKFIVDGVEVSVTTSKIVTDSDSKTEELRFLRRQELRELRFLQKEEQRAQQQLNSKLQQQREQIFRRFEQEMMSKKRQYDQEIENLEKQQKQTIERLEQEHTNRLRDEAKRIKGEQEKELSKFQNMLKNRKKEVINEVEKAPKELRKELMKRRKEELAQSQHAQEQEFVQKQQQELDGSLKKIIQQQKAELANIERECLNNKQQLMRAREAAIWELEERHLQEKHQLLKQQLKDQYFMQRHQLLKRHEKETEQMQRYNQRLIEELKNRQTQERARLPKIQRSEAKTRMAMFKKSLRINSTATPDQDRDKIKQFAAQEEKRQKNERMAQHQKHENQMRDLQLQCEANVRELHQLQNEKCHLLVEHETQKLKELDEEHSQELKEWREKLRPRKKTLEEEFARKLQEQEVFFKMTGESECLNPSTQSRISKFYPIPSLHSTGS

This test addresses STE20-like serine/threonine-protein kinase (Homo sapiens) (UniProt Q9H2G2). As to the kind of experiment: ligand-induced SLK melting temperature shift – biophysical, purified human kinase, DSF (AID 514). To be noted: differential scanning fluorimetry Tm shift, at 10 µM, protein 2 µM, buffer 10 mM HEPES, pH 7.5, NaCl 150 mM, active compounds read high.
Regarding `NC(=O)Nc1sc(-c2ccccc2)cc1C(N)=O`, the Tm shift was 3.5 C. Turning to `Clc1cccc(-c2cnc3ccc(NC4CCOCC4)nn23)c1`, the Tm shift is 3.9 C.

Take `NCCCn1cc(C2=C(c3c[nH]c4ccccc34)C(=O)NC2=O)c2ccccc21`: the Tm shift was 7.6 C. As for `CCCNC(=O)Nc1ccc(Oc2ncnc3cc(OC)c(OC)cc23)cc1Cl`, the Tm shift was 5.8 C. Take `Clc1cccc(Nc2ccn3ncc(-c4ccc5c(c4)OCO5)c3n2)c1`: the Tm shift was 3.7 C. For the molecule `COc1ccc2c(c1)/C(=C/c1cnc[nH]1)C(=O)N2`, the Tm shift was 3.3 C. For the molecule `COc1cc2ncnc(Nc3cccc(O)c3)c2cc1OC`, the Tm shift was 3.2 C. Turning to `COc1ccccc1-c1cnc2[nH]c(=O)n(C3CCCC3)c2n1`, the Tm shift is 3.3 C. Consider `COc1cc2ncnc(Nc3cccc(Br)c3)c2cc1OC`, for which the Tm shift was 6.9 C. For the molecule `Cc1cc(Nc2nc(-c3ccccc3)nc3ccccc23)n[nH]1`, the Tm shift was 6.4 C. The result for `Oc1ccc(Nc2nccn3c(-c4cn[nH]c4)cnc23)cc1` reads 4.7 C; that for `O=C1NCc2c1c1c3ccccc3[nH]c1c1[nH]c3ccccc3c21`, 5.1 C; that for `CCN(CC)CCNC(=O)c1c(C)[nH]c(/C=C2\C(=O)Nc3ccc(Cl)cc32)c1C`, 7.5 C. The result for `Cn1cc(/C=C2\C(=O)Nc3ccc(S(N)(=O)=O)cc32)c2ccccc21` reads 5 C; that for `CCC(CO)Nc1ccc2ncc(-c3ccc(O)cc3)n2n1` (configuration not stated), 3.7 C; that for `CC(C)[C@@H](CO)Nc1ccc2ncc(-c3cccc(OC(F)(F)F)c3)n2n1`, 4.3 C.

Regarding `COc1cc2ncnc(Nc3ccc(NC(=O)c4ccccc4)cc3)c2cc1OC`, the Tm shift was 5.5 C.

Turning to `CC(O)(O)C1(O)C[C@@H]2O[C@@]1(C)n1c3ccccc3c3c4c(c5c6ccccc6n2c5c31)C(=O)NC4` (some centres not stated), the Tm shift is 6.3 C.

Regarding `O=C1Nc2ccc(Br)cc2/C1=C/c1cc2c([nH]1)CCCC2`, the Tm shift was 3.6 C. Turning to `COc1ccc(Nc2nc(N)c(C(=O)c3ccc(OC)cc3)s2)cc1`, the Tm shift was 3.9 C.

As to `Cn1c(O)c(C2=c3ccccc3=NC2=O)[nH]c1=S`, the Tm shift is 3.4 C. The result for `O=C1Nc2ccccc2/C1=C\c1cnc[nH]1` reads 3.3 C; that for `COc1cncc(-c2cnc3ccc(N[C@H](CO)C(C)C)nn23)c1`, 3.1 C. The result for `O=Nc1c(-c2c(O)[nH]c3cc(Br)ccc23)[nH]c2ccccc12` reads 4.6 C; that for `Fc1cccc(-c2cnc3ccc(NC4CCOCC4)nn23)c1`, 4.1 C; that for `FC(F)(F)Oc1cccc(-c2cnc3ccc(NC4CCOCC4)nn23)c1`, 3.6 C. For `COc1ccc(Cl)cc1NC(=O)Nc1cc(C)nc2ccccc12`, the Tm shift was 3.4 C.

In the case of `CN(C)CCCn1cc(C2=C(c3c[nH]c4ccccc34)C(=O)NC2=O)c2ccccc21`, the Tm shift was 6.8 C.

Consider `COc1ccc(C(=O)c2sc(Nc3cccc(C(F)(F)F)c3)nc2N)cc1`, for which the Tm shift was 4.5 C. In the case of `O=C(Nc1cccc(Nc2cc(Nc3cccc(C(F)(F)F)c3)ncn2)c1)C1CC1`, the Tm shift was 3.4 C.

Take `O=c1c(O)c(-c2ccc(O)c(O)c2)oc2cc(O)cc(O)c12`: the Tm shift is 5.7 C.

Take `CCn1cnc2c(Nc3cccc(Cl)c3)nc(N[C@@H]3CCCC[C@@H]3N)nc21`: the Tm shift was 6.4 C. On to `O=C1NC(=O)C(c2cn(CCCn3ccnc3)c3ccccc23)=C1Nc1ccccc1`, for which the Tm shift was 6.3 C. For the molecule `O=C1NC(=O)C(c2c[nH]c3ccccc23)=C1c1c[nH]c2ccccc12`, the Tm shift is 4.6 C. `O=C(Nc1cccc(Nc2nccc(Nc3cccc(C(F)(F)F)c3)n2)c1)C1CC1`: the Tm shift was 3.7 C. Regarding `COc1cncc(-c2cnc3ccc(NC4CCOCC4)nn23)c1`, the Tm shift is 3.4 C. The result for `Nc1cc2ncnc(Nc3cccc(Br)c3)c2cc1N` reads 5.7 C; that for `CNC(=O)c1cc(Oc2ccc(NC(=O)Nc3ccc(C)c(C(F)(F)F)c3)cc2)ccn1`, 8 C. `CCOc1cc2ncnc(Nc3cccc(Br)c3)c2cc1OCC`: the Tm shift was 7.9 C. With `CC(C)[C@@H](CO)Nc1ccc2ncc(-c3cccc(C(F)(F)F)c3)n2n1`, the Tm shift was 4.8 C. Regarding `N#Cc1cnc2cnc(NCc3cccnc3)cc2c1Nc1ccc(F)c(Cl)c1`, the Tm shift is 6.1 C. Consider `COc1ccc(Nc2nc(N)c(C(=O)c3ccc(Cl)cc3)s2)cc1`, for which the Tm shift is 4.4 C. Regarding `Nc1nc(Nc2ccc(S(N)(=O)=O)cc2)nn1C(=S)Nc1c(F)cccc1F`, the Tm shift is 12.1 C. Consider `CCC(CO)Nc1ccc2ncc(-c3cccc(OC(F)(F)F)c3)n2n1` (configuration not stated), for which the Tm shift was 3.6 C. Regarding `Nc1ccc(-c2cnn3ccc(Nc4cccc(Cl)c4)nc23)cc1`, the Tm shift was 4 C.

In the case of `Fc1ccc(-c2cnc3ccc(NC4CCOCC4)nn23)cc1`, the Tm shift was 3.6 C. For `Cn1cc(C2=C(c3c4n(c5ccccc35)CCC(CN)C4)C(=O)NC2=O)c2ccccc21` (configuration not stated), the Tm shift is 4.5 C.

`Oc1cccc(-c2cnc3ccc(NC4CCOCC4)nn23)c1`: the Tm shift is 4.6 C. In the case of `c1ccc(-c2cnc3ccc(NCc4ccco4)nn23)cc1`, the Tm shift is 3.1 C. Consider `Nc1cccc(-c2cc3c(Oc4cccc(O)c4)ncnc3[nH]2)c1`, for which the Tm shift is 5.7 C. For `CC(C)[C@@H](CO)Nc1ccc2ncc(-c3cccc(F)c3)n2n1`, the Tm shift is 4.2 C. The result for `NCCNc1ncc(C(N)=O)c(Nc2cccc(C(F)(F)F)c2)n1` reads 3.3 C; that for `CC(=O)c1cccc(-c2cnc3ccc(N[C@H](CO)C(C)C)nn23)c1`, 3.7 C; that for `CC(C)[C@@H](CO)Nc1ccc2ncc(-c3ccc(C#N)cc3)n2n1`, 3.7 C. As for `ON(O)c1ccc(-c2nc(-c3ccc(F)cc3)c(-c3ccncc3)[nH]2)cc1`, the Tm shift was 5.4 C. In the case of `Clc1ccc(-c2cnc3ccc(NC4CCOCC4)nn23)cc1`, the Tm shift is 3.1 C. The result for `O=Nc1c(-c2c(O)[nH]c3ccccc23)[nH]c2ccccc12` reads 3.9 C. The result for `CC(C)C(CO)Nc1nc(Nc2cc(N)cc(Cl)c2)c2ncn(C(C)C)c2n1` (configuration not stated) reads 6.2 C; that for `Oc1ccc(-c2nc(-c3ccc(F)cc3)c(-c3ccncc3)[nH]2)cc1`, 4.4 C; that for `N=C(N)SCCCn1cc(C2=C(c3c[nH]c4ccccc34)C(=O)NC2=O)c2ccccc21`, 10.6 C. As to `Clc1cccc(-c2cnc3ccc(NCCc4ccccn4)nn23)c1`, the Tm shift is 3.5 C. On to `O=C1Nc2ccccc2/C1=C/c1ccc[nH]1`, for which the Tm shift was 3.1 C. With `CN(C)S(O)(O)c1ccc2c(c1)/C(=C/c1cc3c([nH]1)CCCC3)C(=O)N2`, the Tm shift is 6.2 C. Consider `COc1c(C=O)c(O)cc2c1C(=O)c1ccccc1C2=O`, for which the Tm shift was 5.4 C. For the molecule `Oc1cccc(-c2cnc3ccc(NCC4CC4)nn23)c1`, the Tm shift was 3.2 C. On to `Nc1cccc(-c2cnn3ccc(Nc4cccc(Cl)c4)nc23)c1`, for which the Tm shift was 3.7 C. With `Nc1ncnc2c1c(I)cn2[C@@H]1O[C@H](CO)C(O)C1O` (some centres not stated), the Tm shift is 4.2 C. The result for `Cc1[nH]c(/C=C2\C(=O)Nc3ccc(S(=O)(=O)N(C)c4cccc(Cl)c4)cc32)c(C)c1C(=O)N1CCN(C)CC1` reads 7.7 C.

Take `CC(C)[C@@H](CO)Nc1ccc2ncc(-c3cccc(O)c3)n2n1`: the Tm shift was 4.5 C. With `COc1cc(/C=C/C(=O)CC(=O)/C=C/c2ccc(O)c(OC)c2)ccc1O`, the Tm shift was 3.2 C. Regarding `COc1cccc(-c2cnn3ccc(Nc4cccc(Cl)c4)nc23)c1`, the Tm shift was 4.7 C. Regarding `Nc1nc(Nc2cccc(Cl)c2)sc1C(=O)c1ccc(F)cc1`, the Tm shift was 3.7 C.

`O=C(c1ccc(Nc2nccc(-c3cc4ccccc4s3)n2)cc1)N1CCC(N2CCCC2)CC1`: the Tm shift is 7.3 C. With `O=Nc1c(-c2c(O)[nH]c3ccc(I)cc23)[nH]c2ccccc12`, the Tm shift was 3.7 C. `Cc1nc(N)sc1-c1ccnc(Nc2cccc(-n3oo3)c2)n1`: the Tm shift is 3.6 C.

Take `CCC(CO)Nc1ccc2ncc(-c3ccc(F)c(Cl)c3)n2n1` (configuration not stated): the Tm shift is 3.8 C. Turning to `c1csc(-c2cnc3ccc(NCC4CC4)nn23)c1`, the Tm shift is 3.3 C. The result for `CC(C)(C)n1nc(-c2ccc(Cl)cc2)c2c(N)ncnc21` reads 3.6 C; that for `CN(C)CC1CCn2c(c(C3=C(c4cn(C)c5ccccc45)C(=O)NC3=O)c3ccccc32)C1` (configuration not stated), 4.2 C; that for `CC(C)[C@@H](CO)Nc1ccc2ncc(-c3cccc(Cl)c3)n2n1`, 4.7 C. Turning to `CC(C)(C)n1nc(-c2cccc3ccccc23)c2c(N)ncnc21`, the Tm shift was 6.1 C. For the molecule `OCC(O)CCO/N=C1/C(c2c(O)[nH]c3ccccc23)=Nc2ccccc21` (configuration not stated), the Tm shift was 4.7 C.
